In the NIST ThermoML archive (doi:10.1021/acs.jced.7b00026):

Columns and labels:
[1] = Boiling temperature at pressure P; conditions: Liquid, Ebulliometric method (Recirculating still)
[2] = Liquid; for mass density: 293.15 K, 101.33 kPa, Vibrating tube method
[3] = refractive index (Na D-line) (dimensionless); conditions: 293.15 K; 101.33 kPa; Liquid; Standard Abbe refractometry

CC(C)O [propan-2-ol]
Conditions | Boiling temperature at pressure P [°C] | vapor or sublimation pressure [kPa]
[1], 14.9 kPa | 41.28 | –
[1], 23.43 kPa | 49.88 | –
[1], 29.9 kPa | 54.82 | –
[1], 39.89 kPa | 60.83 | –
[1], 48.34 kPa | 64.99 | –
[1], 59.89 kPa | 69.8 | –
[1], 69.89 kPa | 73.30 | –
[1], 79.88 kPa | 76.49 | –
[1], 92.4 kPa | 79.99 | –
[1], 98.88 kPa | 81.67 | –
[2], 323.15 K | – | 23.48
[2], 338.15 K | – | 48.45
[2], 353.15 K | – | 92.48

Conditions | mass density [kg/m3] | refractive index
[2] | 784.99 | –
[3] | – | 1.37718

CCCO [propan-1-ol]
[1]
Conditions | Boiling temperature at pressure P [°C]
14.9 kPa | 53.83
25.89 kPa | 64.94
29.9 kPa | 67.97
39.89 kPa | 74.30
51.21 kPa | 79.99
59.89 kPa | 83.71
69.89 kPa | 87.44
79.88 kPa | 90.76
93.89 kPa | 94.87
99.88 kPa | 96.46

Conditions | mass density [kg/m3] | refractive index
[2] | 803.66 | –
[3] | – | 1.38512

[2], Ebullio
Conditions | vapor or sublimation pressure [kPa]
338.15 K | 25.92
353.15 K | 51
368.15 K | 93.92

CC(=O)CC(C)C [4-methylpentan-2-one]
[1]
Conditions | Boiling temperature at pressure P [°C]
9.22 kPa | 49.67
9.9 kPa | 51.26
17.52 kPa | 64.70
18.41 kPa | 65.96
31.36 kPa | 79.73
32.13 kPa | 80.39
39.89 kPa | 86.5
53.99 kPa | 95.31
69.89 kPa | 103.21

Conditions | mass density [kg/m3] | refractive index
[2] | 800.3 | –
[3] | – | 1.39586

[2], Ebullio
Conditions | vapor or sublimation pressure [kPa]
323.15 K | 9.22
338.15 K | 17.57
353.15 K | 31.41
368.15 K | 54.04
